Like-named read-outs stand apart in the source and are kept apart here.

For one data set, the system named is GAR TFase. To be noted: indirectly shown, solid tumors in mice; cited from earlier work.
For data set [1], the system named is intracellular pools of ATP and GTP. To be noted: tested against solid tumors in mice; cited from earlier work.
The test system of a further data set is solid tumors. To be noted: variety of solid tumors in mice; cited from earlier work.
The test system of a further data set is HL-60. Conditions: in vivo and in vitro; cited from earlier work.
For the next data set, the system named is 6C3HED lymphosarcoma. Conditions: in vivo and in vitro; cited from earlier work.
A further data set has as its system X-5563. To be noted: in vivo and in vitro; cited from earlier work.
The subject of another data set is B-16 melanoma. To be noted: in vivo and in vitro; cited from earlier work.
The next data set has as its system L1210 leukemia. Conditions: in vivo and in vitro; cited from earlier work.
The test system of another data set is P388 leukemia. Conditions: in vivo and in vitro; cited from earlier work.
Data set [2] concerns the target T1, E. coli GAR TFase (Escherichia coli, UniProt P08179).
T1 construct: made in house; host or cells: E. coli TX393 with multicopy plasmid pJS85, or E. coli TX635 with lambda pL plasmid pJS119 or pJS167
T1 sequence (P08179 1-212): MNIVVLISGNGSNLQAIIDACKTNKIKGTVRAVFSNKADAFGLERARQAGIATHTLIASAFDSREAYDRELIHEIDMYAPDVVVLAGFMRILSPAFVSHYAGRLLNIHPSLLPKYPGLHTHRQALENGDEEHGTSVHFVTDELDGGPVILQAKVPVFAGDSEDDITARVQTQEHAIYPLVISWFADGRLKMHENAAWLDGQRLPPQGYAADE
The experiment in a line: E. coli GAR TFase inhibition/activity assay (5,8-dideazafolate absorbance at 295 nm). The format is biochemical. The procedure:
(§1) All assays were carried out by following the increase of 5,8-dideazafolate absorbence at 295 nm in buffered medium at 26° C. To initiate the reaction, enzyme (1 nM final concentration) was added to a mixture of saturating substrates and variable amounts of inhibitor. A characteristic family of curves was obtained, showing slow, tight-binding inhibition. See, Morrison, Trends Biochem. Sc., 7, 102 (1982) and Morrison, et al., Adv. Enzymology, Relat. Areas Mol. Biol., 57, 201-301 (1987).
(§2) In analyzing the biological activity of the compounds of the present invention, GAR TFase from E. coli was used. This enzyme behaves like the mammalian and avian enzyme with respect to substrate specificity, yet is a simple and effective system having only one biological activity. That is, unlike the avian trifunctional GAR TFase, the E. coli species has a sole function. This follows from the genetic evidence of Smith and Daum, J. Biol. Chem., 262, 10565-10569 (1987) as w®11 as the work of Schrimsher et al., Biochemistry, 25, 4366-4371 (1986) who have shown that […] from E. coli is a monofunctional protein, whereas, in chicken it belongs to a trifunctional protein containing, the activates: GAR SYNthase, GAR TFase, and AIR SYNthase.
The E. coli GAR TFase binding constants for the compounds of the present invention and other folate analogs are shown in Table I below:
Table II illustrates the specificity of beta-TGDDF for GAR TFase in comparison with other reduced-folate utilizing enzymes. This test, was conducted using the same [I]/[E]ratios as stated previously.

The target in data set [3] is T1, E. coli GAR TFase. The experiment in a line: Fluorescence titration, dissociation constant for E. coli GAR TFase. The format is binding. The procedure: The thermodynamic dissociation constant, KD, for the E.β-TGDDF complex was measured by following the enhancement of the inhibitor's 395 nm fluorescence (excitation at 275 nm) upon binding to GAR TFase. A concentrated E. coli GAR TFase solution was added to an 11 nM solution of purified β-TGDDF; for each addition, the fluorescence at three different wavelengths (396, 400, and 405 nm) was measured. Fluorescence titration data was analyzed by the method of Taira and Benkovic, J. Med. Chem., 31, 129-137 (1988).
as §2
(§3) The E. coli GAR TFase binding constants for the compounds of the present invention and other folate analogs are shown in Table I below: […]

Substrate in data set [4]: NCC(=O)N[C@@H]1O[C@H](COP(=O)(O)O)[C@@H](O)[C@H]1O
The experiment in a line: E. coli GAR TFase inhibition/activity assay (5,8-dideazafolate absorbance at 295 nm). In kind it is biochemical. Conditions: other: Table I, 26.0 °C. How it is done:
as §1, §2, §3

Substrate in data set [5]: Nc1nc(O)c2cc(CN(C=O)c3ccc(C(=O)N[C@@H](CCC(=O)O)C(=O)O)cc3)ccc2n1
Described as above. In kind it is biochemical. Conditions: other: Table I, 26.0 °C. How it is done:
as §1, §2, §3

With `Nc1nc2c(c(=O)[nH]1)CC(CCc1ccc(C(=O)NC(CCC(=O)O)C(=O)O)cc1)CN2` (stereo not shown) [DDATHF], the “Inhibition of GAR TFase” value in the data set with GAR TFase was “indirectly shown to inhibit GAR TFase”. Besides, the “Effect on intracellular pools of ATP and GTP” value in [1] was “depletion of intracellular pools of ATP and GTP”. In addition, in the data set with solid tumors, the “Activity against solid tumors” value is given as “impressive activity”. The Anti-tumor activity entry with HL-60, with 6C3HED lymphosarcoma, in the data set with X-5563, in the data set with B-16 melanoma, in the data set with L1210 leukemia and in the data set with P388 leukemia was “anti-tumor,activity” each time.

In the case of `Nc1nc2ccc(CNc3ccc(C(=O)N[C@@H](CCC(=O)O)C(=O)O)cc3)cc2c(=O)[nH]1` [DDF, 5,8-dideazafolate, reference compound], the Ki (as a rule, a measure of affinity in units of concentration, obtained from inhibition or displacement) at E. coli GAR TFase [2] stood at 28.1 µM.

As to `Nc1nc2ccc(CN(C(=O)CSCC(=O)NC3O[C@H](CO)[C@@H](O)[C@H]3O)c3ccc(C(=O)N[C@@H](CCC(=O)O)C(=O)O)cc3)cc2c(=O)[nH]1` (stereo partly drawn) [alpha,beta-dephospho-TGDDF], the Ki on E. coli GAR TFase [2] (Table I, E. coli GAR TFase, read-out: KI) was 1.7 µM.

Turning to `Nc1nc2ccc(CN(C(=O)CSCC(=O)N[C@H]3O[C@H](COP(=O)(O)O)[C@@H](O)[C@H]3O)c3ccc(C(=O)N[C@@H](CCC(=O)O)C(=O)O)cc3)cc2c(=O)[nH]1` [alpha-TGDDF], the “binding affinity for GAR TFase (comparison of anomers)” value at E. coli GAR TFase [3] (alpha- versus beta-anomer) is given as “lower than the beta-anomer”. The Kd – broadly, the concentration at which binding is half-saturated – on E. coli GAR TFase [3] (alpha-anomer, read-out: KD) is 5.8 nM.

`CN(Cc1cnc2nc(N)nc(N)c2n1)c1ccc(C(=O)N[C@@H](CCC(=O)O)C(=O)O)cc1` [methotrexate]: the “Activity against solid tumors” value with solid tumors was “minimal activity”.

B1: E. coli GAR TFase (Escherichia coli K-12) (protein)
chain: T1 sequence (P08179 1-212)
notes: made in house; host or cells: E. coli TX393 with multicopy plasmid pJS85, or E. coli TX635 with lambda pL plasmid pJS119 or pJS167
On to B1, for which the figures for the Km in data set [4] and in [5] were 20 µM and 36 µM, respectively.
